Laboratory results taken from patent US7125878B2, “Substituted pyrroline kinase inhibitors” (Janssen Pharmaceutica, priority 2002, dated 2006).
Several values for one entry are separate records, joined by “and”; a condition that tells them apart may be missing. Equal values may be shown once.

Assays:
PKC-γ = PKC-γ (Homo sapiens, UniProt P05129); experiment: Protein Kinase C Histone-Based Assay, isozyme γ; conditions: for inhibition at 10 µM / inhibition at 1 µM: read-out: PKC-γ % inhibition
Experimental: (§1) Compounds were evaluated for PKC isozyme selectivity using histone III as the substrate. […] 100 μg/mL phosphatidylserine, 20 μg/mL diacylglycerol, 30 μM ATP, 1 μCi [^33P]ATP and 200 μg/mL histone III. The reaction was incubated for 10 min at 30° C. Reactions were terminated by TCA precipitation and spotting on Whatman P81 filters. Filters were washed in 75 mM phosphoric acid and the radioactivity quantified by liquid scintillation counting.

PKC-βII = PKC-βII (Homo sapiens, UniProt P05771); experiment: Protein Kinase C Histone-Based Assay, isozyme β-II; format: biochemical; conditions: for IC50: histone III substrate
Experimental: as §1

[1] = molecular target: T1, recombinant rabbit GSK-3β protein (Oryctolagus cuniculus, UniProt G1T8E2); experiment: Glycogen Synthase Kinase-3 Assay (33P phosphorylation of PPI-2); format: biochemical; conditions: for IC50: two numbers = data obtained on different days; for inhibition at 0.1 µM: @100 nM; for inhibition at 1 µM: two numbers = different days; for inhibition at 0.2 µM: @200 nM
T1 construct: purchased New England Biolabs
Experimental: Glycogen Synthase Kinase-3 Assay
Compounds were tested for the ability to inhibit recombinant rabbit GSK-3β protein using the following protocol. The test compound was added to a reaction mixture containing Protein Phosphatase Inhibitor-2 (PPI-2) (Calbiochem) (45 ng), rabbit GSK-3β protein (New England Biolabs) (0.75 units) and ^33P-ATP (1 μCi) in 50 mM Tris-HCl (pH 8.0), 10 mM MgCl2, 0.1% BSA, 1 mM DTT and 100 μM Sodium Vanadate. The mixture was reacted for 90 minutes at 30° C. to allow phosphorylation of the PPI-2 protein and then the protein in the reaction was precipitated using 10% TCA. The precipitated protein was collected on filter plates (MultiScreen-DV/Millipore), which were subsequently washed. Finally, the radioactivity was quantified using a TopCount Scintillation Counter (Packard). […] Staurosporine or Valproate, known inhibitors of GSK-3β, were used as a positive control for screening.

PKC-α = PKC-α (Homo sapiens, UniProt P17252); experiment: Protein Kinase C Histone-Based Assay, isozyme α; conditions: for inhibition at 10 µM / inhibition at 1 µM: read-out: PKC-α % inhibition
Experimental: as §1

T1 sequence (G1T8E2 1-432): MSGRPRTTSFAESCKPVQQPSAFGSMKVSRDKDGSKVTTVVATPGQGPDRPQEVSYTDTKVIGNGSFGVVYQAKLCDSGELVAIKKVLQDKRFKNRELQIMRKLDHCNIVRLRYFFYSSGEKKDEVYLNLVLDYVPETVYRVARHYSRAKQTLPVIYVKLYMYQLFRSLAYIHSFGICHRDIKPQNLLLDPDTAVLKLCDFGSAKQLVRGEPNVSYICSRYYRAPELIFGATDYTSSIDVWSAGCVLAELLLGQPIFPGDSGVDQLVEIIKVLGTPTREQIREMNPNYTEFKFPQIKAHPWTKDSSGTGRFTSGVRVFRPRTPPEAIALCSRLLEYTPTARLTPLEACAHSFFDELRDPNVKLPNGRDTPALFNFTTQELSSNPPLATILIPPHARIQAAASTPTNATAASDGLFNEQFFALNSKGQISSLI
PKC-βII, sequence (P05771 1-673 isoform P05771-2): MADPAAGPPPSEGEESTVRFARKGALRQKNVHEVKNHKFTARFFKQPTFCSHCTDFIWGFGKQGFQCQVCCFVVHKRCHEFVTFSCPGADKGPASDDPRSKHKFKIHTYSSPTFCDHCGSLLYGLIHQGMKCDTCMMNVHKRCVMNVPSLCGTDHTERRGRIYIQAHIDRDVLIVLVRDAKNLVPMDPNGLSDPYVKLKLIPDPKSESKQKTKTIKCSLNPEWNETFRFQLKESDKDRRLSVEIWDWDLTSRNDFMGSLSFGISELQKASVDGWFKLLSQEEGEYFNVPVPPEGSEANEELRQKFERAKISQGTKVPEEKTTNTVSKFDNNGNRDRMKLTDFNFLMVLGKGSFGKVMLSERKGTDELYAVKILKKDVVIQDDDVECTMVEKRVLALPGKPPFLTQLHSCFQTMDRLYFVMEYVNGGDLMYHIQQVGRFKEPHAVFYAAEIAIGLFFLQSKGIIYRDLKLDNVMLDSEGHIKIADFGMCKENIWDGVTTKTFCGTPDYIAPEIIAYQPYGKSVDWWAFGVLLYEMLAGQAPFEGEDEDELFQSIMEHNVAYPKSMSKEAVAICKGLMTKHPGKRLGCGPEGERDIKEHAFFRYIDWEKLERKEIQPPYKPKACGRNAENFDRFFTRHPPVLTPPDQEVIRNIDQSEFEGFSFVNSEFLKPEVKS

COC(=O)NCCCn1cc(C2=C(c3ccccc3OC)C(=O)NC2=O)c2cccnc21 [Cpd 35, [3-[3-[2,5-dihydro-4-(2-methoxyphenyl)-2,5-dioxo-1H-pyrrol-3-yl]-1H-pyrrolo[2,3-b]pyridin-1-yl]propyl]-carbamic acid methyl ester]
inhibition at 10 µM (PKC-γ): 35% | inhibition at 1 µM (PKC-βII): 35% | IC50 [1]: 8 nM and 11 nM | inhibition at 10 µM (PKC-α): 31%

COC(=O)NCCCn1cc(C2=C(c3ccccc3C(F)(F)F)C(=O)NC2=O)c2cccnc21 [Cpd 37, [3-[3-[2,5-dihydro-4-(2-trifluoromethylphenyl)-2,5-dioxo-1H-pyrrol-3-yl]-1H-pyrrolo[2,3-b]pyridin-1-yl]propyl]-carbamic acid methyl ester]
IC50 (PKC-γ): 4750 nM | IC50 (PKC-βII): 342 nM | IC50 [1]: 14 nM and 19 nM | IC50 (PKC-α): 5270 nM

CN(C)CCCn1cc(C2=C(c3cccc4ccccc34)C(=O)NC2=O)c2cccnc21 [Cpd 4, 3-[1-[3-(dimethylamino)propyl]-1H-pyrrolo[2,3-b]pyridin-3-yl]-4-(1-naphthalenyl)-1H-pyrrole-2,5-dione]
inhibition at 1 µM (PKC-γ): 48% | inhibition at 10 µM (PKC-γ): 59% | inhibition at 1 µM (PKC-βII): 47% | inhibition at 10 µM (PKC-βII): 84% | inhibition at 0.1 µM [1]: 51% | inhibition at 1 µM (PKC-α): 0% | inhibition at 10 µM (PKC-α): 34%

O=C1NC(=O)C(c2nn(CCCO)c3ccccc23)=C1c1cn(-c2ccc3ccccc3c2)c2ncccc12 [Cpd 21, 3-[1-(3-hydroxypropyl)-1H-indazol-3-yl]-4-[1-(2-naphthalenyl)-1H-pyrrolo[2,3-b]pyridin-3-yl]-1H-pyrrole-2,5-dione]
IC50 (PKC-γ): 859 nM | IC50 (PKC-βII): 36 nM | inhibition at 1 µM [1]: 44% | IC50 (PKC-α): 1440 nM

O=C1NC(=O)C(c2cn(CCCO)c3ncccc23)=C1c1cccc2ccccc12 [Cpd 3, 3-[1-(3-hydroxypropyl)-1H-pyrrolo[2,3-b]pyridin-3-yl]-4-(1-naphthalenyl)-1H-pyrrole-2,5-dione]
inhibition at 1 µM (PKC-γ): 20% | inhibition at 10 µM (PKC-γ): 31% | inhibition at 1 µM (PKC-βII): 30% | inhibition at 10 µM (PKC-βII): 89% | IC50 [1]: 30 nM and 31 nM | inhibition at 1 µM (PKC-α): 0% | inhibition at 10 µM (PKC-α): 51%

COc1ccccc1C1=C(c2cn(CCCNC(C)=O)c3ncccc23)C(=O)NC1=O [Cpd 77, N-[3-[3-[2,5-dihydro-4-(2-methoxyphenyl)-2,5-dioxo-1H-pyrrol-3-yl]-1H-pyrrolo[2,3-b]pyridin-1-yl]propyl]-acetamide]
inhibition at 1 µM (PKC-βII): 49% | IC50 [1]: 2 nM and 3 nM | inhibition at 10 µM (PKC-α): 26%

Cn1ccc(C2=C(c3cn(CCCC#N)c4ncccc34)C(=O)NC2=O)n1 [Cpd 64, 4-{3-[4-(1-Methyl-1H-pyrazol-3-yl)-2,5-dioxo-2,5-dihydro-1H-pyrrol-3-yl]-pyrrolo[2,3-b]pyridin-1-yl}-butyronitrile]
IC50 [1]: 77 nM and 128 nM

Cn1nccc1C1=C(c2cn(CCCO)c3ncccc23)C(=O)NC1=O [Cpd 66, 3-[1-(3-Hydroxy-propyl)-1H-pyrrolo[2,3-b]pyridin-3-yl]-4-(2-methyl-2H-pyrazol-3-yl)-pyrrole-2,5-dione]
IC50 [1]: 480 nM and 660 nM

Cc1noc(C)c1C1=C(c2cn(CCCO)c3ncccc23)C(=O)NC1=O [Cpd 44, 3-(3,5-Dimethyl-isoxazol-4-yl)-4-[1-(3-hydroxy-propyl)-1H-pyrrolo[2,3-b]pyridin-3-yl]-pyrrole-2,5-dione]
inhibition at 1 µM [1]: 32%

COc1ccccc1C1=C(c2cn(CCCO)c3ncccc23)C(=O)NC1=O [Cpd 8, 3-[1-(3-hydroxypropyl)-1H-pyrrolo[2,3-b]pyridin-3-yl]-4-(2-methoxyphenyl)-1H-pyrrole-2,5-dione]
IC50 [1]: 3 nM

COc1ncc(C2=C(c3cn(Cc4ccccc4)c4ncccc34)C(=O)NC2=O)c(OC)n1 [Cpd 72, 3-(1-Benzyl-1H-pyrrolo[2,3-b]pyridin-3-yl)-4-(2,4-dimethoxy-pyrimidin-5-yl)-pyrrole-2,5-dione]
inhibition at 1 µM [1]: 54%

CCCCC1=C(c2cn(CCCO)c3ncccc23)C(=O)NC1=O [Cpd 70, 3-Butyl-4-[1-(3-hydroxy-propyl)-1H-pyrrolo[2,3-b]pyridin-3-yl]-pyrrole-2,5-dione]
IC50 [1]: 380 nM

COc1ncc(C2=C(c3cn(CCc4ccccc4)c4ncccc34)C(=O)NC2=O)c(OC)n1 [Cpd 73, 3-(2,4-Dimethoxy-pyrimidin-5-yl)-4-(1-phenethyl-1H-pyrrolo[2,3-b]pyridin-3-yl)-pyrrole-2,5-dione]
IC50 [1]: 100 nM

O=C1NC(=O)C(c2cn(CCCO)c3ncccc23)=C1C1=CCCCO1 [Cpd 23, 3-(3,4-dihydro-2H-pyran-6-yl)-4-[1-(3-hydroxypropyl)-1H-pyrrolo[2,3-b]pyridin-3-yl]-1H-pyrrole-2,5-dione]
IC50 [1]: 158 nM and 51 nM

O=C1NC(=O)C(c2cn(CCCO)c3ncccc23)=C1c1cc2n(n1)CCCC2 [Cpd 54, 3-[1-(3-Hydroxy-propyl)-1H-pyrrolo[2,3-b]pyridin-3-yl]-4-(4,5,6,7-tetrahydro-pyrazolo[1,5-a]pyridin-2-yl)-pyrrole-2,5-dione]
IC50 [1]: 232 nM and 161 nM

Cn1ccc(C2=C(c3cn(CCC#N)c4ncccc34)C(=O)NC2=O)n1 [Cpd 69, 3-{3-[4-(1-Methyl-1H-pyrazol-3-yl)-2,5-dioxo-2,5-dihydro-1H-pyrrol-3-yl]-pyrrolo[2,3-b]pyridin-1-yl}-propionitrile]
IC50 [1]: 100 nM

COc1cccc(C2=C(c3cn(CCCO)c4ncccc34)C(=O)NC2=O)c1 [Cpd 9, 3-[1-(3-hydroxypropyl)-1H-pyrrolo[2,3-b]pyridin-3-yl]-4-(3-methoxyphenyl)-1H-pyrrole-2,5-dione]
IC50 [1]: 11 nM

O=C1NC(=O)C(c2cn(CCCO)c3ncccc23)=C1c1cnc(-c2ccccc2)o1 [Cpd 49, 3-[1-(3-Hydroxy-propyl)-1H-pyrrolo[2,3-b]pyridin-3-yl]-4-(2-phenyl-oxazol-5-yl)-pyrrole-2,5-dione]
IC50 [1]: 56 nM and 58 nM

O=C1NC(=O)C(c2cn(CCCc3ccccc3)c3ncccc23)=C1c1cnccn1 [Cpd 60, 3-[1-(3-Phenyl-propyl)-1H-pyrrolo[2,3-b]pyridin-3-yl]-4-pyrazin-2-yl-pyrrole-2,5-dione]
IC50 [1]: 625 nM

O=C1NC(=O)C(c2cn(CCCOc3ccccc3)c3ncccc23)=C1c1cc2n(n1)CCC2 [Cpd 65, 3-(5,6-Dihydro-4H-pyrrolo[1,2-b]pyrazol-2-yl)-4-[1-(3-phenoxy-propyl)-1H-pyrrolo[2,3-b]pyridin-3-yl]-pyrrole-2,5-dione]
IC50 [1]: 188 nM and 244 nM

O=C1NC(=O)C(c2cn(CCCO)c3ncccc23)=C1C1=COCCO1 [Cpd 51, 3-(5,6-Dihydro-[1,4]dioxin-2-yl)-4-[1-(3-hydroxy-propyl)-1H-pyrrolo[2,3-b]pyridin-3-yl]-pyrrole-2,5-dione]
IC50 [1]: 150 nM and 187 nM

COc1ncc(C2=C(c3cn(CCOc4ccc(F)cc4)c4ncccc34)C(=O)NC2=O)c(OC)n1 [Cpd 75, 3-(2,4-Dimethoxy-pyrimidin-5-yl)-4-{1-[2-(4-fluoro-phenoxy)-ethyl]-1H-pyrrolo[2,3-b]pyridin-3-yl}-pyrrole-2,5-dione]
IC50 [1]: 240 nM

O=C1NC(=O)C(c2cn(CCCO)c3ncccc23)=C1c1cn(CCCO)cn1 [Cpd 18, 3-[1-(3-hydroxypropyl)-1H-imidazol-4-yl]-4-[1-(3-hydroxypropyl)-1H-pyrrolo[2,3-b]pyridin-3-yl]-1H-pyrrole-2,5-dione]
inhibition at 0.2 µM [1]: 29%

O=C1NC(=O)C(c2cccc3cccnc23)=C1c1cn(CCCO)c2ncccc12 [Cpd 42, 3-[1-(3-Hydroxy-propyl)-1H-pyrrolo[2,3-b]pyridin-3-yl]-4-quinolin-8-yl-pyrrole-2,5-dione]
IC50 [1]: 123 nM and 106 nM

O=C1NC(=O)C(c2cn(CCCO)c3ncccc23)=C1c1cn(CCO)cn1 [Cpd 19, 3-[1-(2-hydroxyethyl)-1H-imidazol-4-yl]-4-[1-(3-hydroxypropyl)-1H-pyrrolo[2,3-b]pyridin-3-yl]-1H-pyrrole-2,5-dione]
inhibition at 0.2 µM [1]: 25%

O=C1NC(=O)C(c2cn(CCCO)c3ncccc23)=C1c1ncc[nH]1 [Cpd 17, 3-[1-(3-hydroxypropyl)-1H-pyrrolo[2,3-b]pyridin-3-yl]-4-(1H-imidazol-2-yl)-1H-pyrrole-2,5-dione]
inhibition at 0.1 µM [1]: 19%

O=C1NC(=O)C(c2cn(CCCO)c3ncccc23)=C1c1cc2ccccc2o1 [Cpd 25, 3-(2-benzofuranyl)-4-[1-(3-hydroxypropyl)-1H-pyrrolo[2,3-b]pyridin-3-yl]-1H-pyrrole-2,5-dione]
IC50 [1]: 71 nM and 44 nM

O=C1NC(=O)C(c2cn(CCCO)c3ncccc23)=C1c1ncccn1 [Cpd 56, 3-[1-(3-Hydroxy-propyl)-1H-pyrrolo[2,3-b]pyridin-3-yl]-4-pyrimidin-2-yl-pyrrole-2,5-dione]
inhibition at 1 µM [1]: 23%

O=C1NC(=O)C(c2cn(CCCO)c3ncccc23)=C1/C=C/c1ccc(F)cc1 [Cpd 22, 3-[(E)-2-(4-fluorophenyl)ethenyl]-4-[1-(3-hydroxypropyl)-1H-pyrrolo[2,3-b]pyridin-3-yl]-1H-pyrrole-2,5-dione]
IC50 [1]: 330 nM

O=C1NC(=O)C(c2cn(CCCO)c3ncccc23)=C1c1ncc(C(F)(F)F)cc1Cl [Cpd 13, 3-[3-chloro-5-(trifluoromethyl)-2-pyridinyl]-4-[1-(3-hydroxypropyl)-1H-pyrrolo[2,3-b]pyridin-3-yl]-1H-pyrrole-2,5-dione]
IC50 [1]: 36 nM

O=C1NC(=O)C(c2cn(CCCO)c3ncccc23)=C1c1cccoc1=O [Cpd 45, 3-[1-(3-Hydroxy-propyl)-1H-pyrrolo[2,3-b]pyridin-3-yl]-4-(2-oxo-2H-pyran-3-yl)-pyrrole-2,5-dione]
IC50 [1]: 28 nM and 18 nM
